{"source": "patent US9629864B2", "about": "(priority 2013, dated 2017)", "key": {"Hela cells": {"tested_on": "Hela cells", "conditions": "72 h"}, "yeast-type fungi": {"tested_on": "yeast-type fungi", "conditions": "cited from earlier work"}, "[1]": {"tested_on": "mouse model of acute hemolytic uremic syndrome (type 2 Shiga toxin)", "design": "species or system mice", "conditions": "in vivo, 200 mg/kg"}, "[2]": {"tested_on": "mouse model of acute hemolytic uremic syndrome (type 2 Shiga toxin)", "design": "species or system mice", "conditions": "in vivo, 200 mg/kg", "remark": "listed apart in the source"}, "[3]": {"tested_on": "mouse model of acute hemolytic uremic syndrome (type 2 Shiga toxin)", "design": "species or system mice", "conditions": "in vivo, 200 mg/kg", "remark": "listed apart in the source"}}, "data": [{"smiles": "O=C(O)[C@H]1O[C@@H](Oc2cc3oc(-c4ccccc4)cc(=O)c3c(O)c2O)[C@H](O)[C@@H](O)[C@@H]1O", "note": "[baicalin]", "values": [{"measurement": "inhibition of cytotoxicity of Hela cells caused by type 2 Shiga toxin", "setting": "Hela cells", "result": "significantly inhibited the cytotoxicity of Hela cells caused by type 2 Shiga toxin, in a dose-dependent manner"}, {"measurement": "minimal inhibitory concentration (MIC)", "setting": "yeast-type fungi", "result": "70 to 100", "unit": "µg/mL"}, {"measurement": "survival rates of mice", "setting": "[1]", "result": "significantly increased"}, {"measurement": "content of blood urea nitrogen (BUN) in mouse serum, drug administration group vs normal control group", "setting": "[2]", "result": "no significant difference"}, {"measurement": "content of creatinine in mouse serum, drug administration group vs normal control group", "setting": "[2]", "result": "no significant difference"}, {"measurement": "pathological changes of kidney", "setting": "[3]", "result": "only a minor hemorrhage existed in the kidney tissue, and there was no significant difference compared with mice in normal group"}]}]}
